# From US9333209B2, “Compositions for increasing hair growth” (The Board of Trustees of the Leland Stanford Junior …, priority 2012, dated 2016)
# Entries after “also recorded” stand apart in the source; their conditions may differ.
# B1: Fstl1 protein: secreted glycoprotein that inhibits BMP signaling; deduced 308-amino acid protein with FS module (protein, UniProt Q12841 21-308, looked up)
# Follistatin-related protein 1: EEELRSKSKICANVFCGAGRECAVTEKGEPTCLCIEQCKPHKRPVCGSNGKTYLNHCELHRDACLTGSKIQVDYDGHCKEKKSVSPSASPVVCYQSNRDELRRRIIQWLEAEIIPDGWFSKGSNYSEILDKYFKNFDNGDSRLDSSEFLKFVEQNETAINITTYPDQENNKLLRGLCVDALIELSDENADWKLSFQEFLKCLNPSFNPPEKKCALEDETYADGAETEVDCNRCVCACGNWVCTAMTCDGKNQKGAQTQTEEEMTRYVQELQKHQETAEKTKRVSTKEI
# Tests used:
# [1] = tested on: bulge stem cells of Cav fx/-; K15 CrePR mice; assay: Verapamil treatment of RU486 treated Cav fx/-; K15 CrePR mice; assay type: in vivo, mouse
# From the text: Loss of function mutation of this channel entails a removal of exon 13 and 14 of Cav 1.2 gene (FIG. 1). […] Cav fx/- mice were crossed to K15CrePR animals to remove the pore region of the channel in the bulge stem cells. RU486 treatment of Cav fx/-; K15CrePR allowed the removal of the pore region. […] Loss of function mutation, which represents the closed state of this channel, results in the same phenotype as the open state of the channel.
# [2] = tested on: hair follicles of wild type mice; assay: Verapamil treatment of wild type mice in first telogen
# [3] = tested on: bulge stem cells; assay: microarray analysis and RT-PCR on Verapamil treated bulge cells; assay type: in vivo, mouse
# From the text: Out of those, the gene Follistatin like 1 (Fstl1) stood out. Fstl1 is a secreted glycoprotein that inhibits BMP signaling in lung and ureter development.
# There are other BMP inhibitors that are known to affect hair cycling.
# [4] = tested on: murine hair follicle cycling; conditions: small molecule screen of calcium blockers; mice
# Method: To understand how calcium signaling controls hair follicle stem cell regulation, a screen for small molecules that affect murine hair follicle cycling was carried out. The compounds included a survey of different classes of cell permeable slow and fast channel blockers applied to the skin.
# We performed a small molecule screen to find out if any of the available calcium blockers affected hair follicle cycling.
# [5] = tested on: hair cycling; assay: subcutaneous injection of Fstl1 protein soaked beads, effect on hair cycling; assay type: in vivo, mouse; conditions: half dose (2 μg) soaked beads, Day 21-22 mice
# Method: To understand the effect of Fstl1 on hair cycling, we subcutaneously injected two different doses of Fstl1 protein (4 μg and 2 μg) soaked beads to Day 21-22 mice. In 2 to 4 days, these mice went into anagen (n=8, FIG. 7D).
# [6] = treated bulge stem cells vs control bulge stem cells
molecule,measurement,setting,value
"COc1ccc(CCN(C)CCCC(C#N)(c2ccc(OC)c(OC)c2)C(C)C)cc1OC (stereo not shown) [Verapamil, verapamil]",anagen entry later than wild type littermates,"[1]; drug treated Cav fx/-, K15 CrePR mutant mice, RU486 treated",2 to 4 days
same,H and E staining of skin sections,[1]; treated mice vs control skin with telogen hair follicles,anagen hair follicles
same,H and E staining of skin sections,[2]; drug treated wild type mice vs telogen hair follicles in control mice,anagen hair follicles
same,early anagen (advance of anagen entry),"[2]; wild type mice treated between days 21 and 28 (first telogen), n=8",5 to 7 days
same,Bambi expression,[3]; treated bulge stem cells,downregulated
same,Noggin expression,[3]; treated bulge stem cells,downregulated
same,Fstl1 expression (RT-PCR),[3]; [6],upregulated
same,Tmeff1 expression,[3]; [6],does not change much
"COc1ccc([C@@H]2Sc3ccccc3N(CCN(C)C)C(=O)[C@@H]2OC(C)=O)cc1 [Diltiazem, diltiazem]",entry to anagen,[4],showed the same results; also recorded: precocious entry into anagen
B1,entry to anagen,[5],only partial entry to anagen
